From patent publication US20090133166A1, “Methods for Improving Flowering Characteristics Using Methyl Dihydrojasmonate” (NEW BIOLOGY, INC., priority 2007, published 2009)
Values joined by “and” are separate entries in the source; they are usually repeats but may differ in a detail not shown here. Identical values can stand only once.

How the values were obtained:
[1] = tested on: Parade Roses®; test: Flower development on intact flowering rose plants after foliar treatment; assay type: in vivo; set-up: key to Bloom Stage Day 1 / Bloom Stage Day 12: 1: Early bloom; 2: Fully Open; 3: Wilted
Procedure: Parade Roses® with flowers in the bud to early bloom stage were treated to the point of drip on day 1 and day 2 with an aqueous solution comprising either (1) 0.125% Triton® X-100 and 0.5% canola oil as a control treatment; or (2) 1.5 mM MDHJ, 0.125% Triton® X-100, and 0.5% canola oil. There were four plants per treatment. Approximately 10 ml of each treatment was applied to each plant, comprising approximately 3.9 μL (15 μM MDHJ). Rate of flower development of individual flowers was monitored and compared between treatments. On day 1 and day 12, individual flowers were rated according to their stage of blooming. FIG. 3 is a photographic comparison of treated and untreated plants at day 1 and day 12.

[2] = tested on: field grown ‘Julia Child’ roses; test: Vase life / bloom stage of cut field grown roses after pre-harvest foliar treatment; assay type: in vivo; set-up: key to Bloom Stage Day 1 / Bloom Stage Day 3: a: Green Bud; b: Full Bud; c: Flower in early bloom stage; d: Flower in fully open stage; Flower in late bloom stage; Fully wilted flower; Flower drooped before fully opening
Procedure: Foliage of field grown ‘Julia Child’ roses were sprayed to the point of drip 24 hours before harvesting with an aqueous solution comprising 5.0 mM MDHJ, 0.125% Triton® X-100, and 0.5% canola oil. On average, about 100 ml of the formulation was applied per plant, comprising an approximate volume of 130 μl (or 500 μM) MDHJ. Stems of flowers in the bud to early-bloom stage were cut in the field. Stems received a fresh cut while submerged under water before transferring to a water-filled vase. The bloom stage of 4-5 flowers was analyzed on day 1 and day 3, as compared with untreated roses that were otherwise similarly handled. FIG. 1 illustrates the full vases of flowers for the treated and untreated roses on day 1 and day 3, respectively. FIG. 2 illustrates individual roses on day 1 and day 3.

[3] = plants treated before harvesting, vs untreated

CCCCCC1C(=O)CCC1CC(=O)OC (stereo not shown) [MDHJ, methyl dihydrojasmonate]
Average Bloom Stage Day 1 ([1]; average of 8 flowers, day 1, scale 1 early bloom, 2 fully open, 3 wilted, 1.5 mM MDHJ formulation): 1.4
Average Bloom Stage Day 12 ([1]; average of 8 flowers, day 12, scale 1 early bloom, 2 fully open, 3 wilted, 1.5 mM MDHJ formulation): 1.4
Flower development on intact plants ([1]; formulation containing MDHJ vs control formulation without MDHJ): prolonged flower development
Bloom Stage Day 1 ([1]; individual flowers on intact plants, day 1, 1.5 mM MDHJ, 0.125% Triton X-100, 0.5% canola oil applied day 1 and day 2, listed as Treatment 2): 2 (3×) and 1 (5×)
Bloom Stage Day 12 ([1]; individual flowers on intact plants, day 12, 1.5 mM MDHJ, 0.125% Triton X-100, 0.5% canola oil applied day 1 and day 2, listed as Treatment 2): 2 (3×) and 1 (5×)
Bloom Stage Day 1 ([2]; individual cut flowers, day 1, foliage sprayed 24 hours before harvesting with 5.0 mM MDHJ, 0.125% Triton X-100, 0.5% canola oil, listed as Treated): d and c and b (2×)
Bloom Stage Day 3 ([2]; individual cut flowers, day 3, foliage sprayed 24 hours before harvesting with 5.0 mM MDHJ, 0.125% Triton X-100, 0.5% canola oil): d
Ability of buds to open fully into flowers ([2]; plants treated before harvesting buds and early flowers, vs untreated): improving the ability of the buds to open fully into flowers
Bent neck of stems [2, 3]: prevents stems from exhibiting bent neck
Flower wilting [2, 3]: delays flower wilting
